According to US20140051762A1, “POLYCATIONIC COMPOUNDS AND USES THEREOF” (priority 2004, published 2014):
Several values for one entry are separate records, joined by “and”; a condition that tells them apart may be missing. Equal values may be shown once.

Tested on: heparin
Assay: effect on coagulation time and heparin efficacy
Details: Heparin 1 mg/L, Compound 26 0 mg/L
Description: The following example illustrates the effect of a polycationic compound of the present invention on coagulation time. The anti-heparin assay as described herein was used. The assay contained either 1 mg/L, 2 mg/L or 4 mg/I of heparin and increasing amounts of Compound 26 was added.

| Molecule | Coagulation Time [s] | Heparin Efficacy |
| --- | --- | --- |
| heparin [reference compound] | 50.8 | 1 |

Same assay, conditions: Heparin 2 mg/L, Compound 26 0 mg/L

| Molecule | Coagulation Time [s] | Heparin Efficacy |
| --- | --- | --- |
| heparin [reference compound] | 110.8 | 1 |

Same assay, conditions: Heparin 4 mg/L, Compound 26 0 mg/L

| Molecule | Coagulation Time [s] | Heparin Efficacy |
| --- | --- | --- |
| heparin [reference compound] | 214.9 | 1 |

Tested on: Factor Xa
Assay: anti-heparin assay, % Factor Xa inhibition at single concentration (chromogenic substrate S-2765)
Format: biochemical
Details: Single concentration (10 ug/ml)
Description: The following example illustrates the heparin antagonistic effects of polycationic compounds of the present invention. To determine the anti-heparin activity of the polycationic compounds an assay measuring the percent inhibition using a fixed concentration of polycationic compound or concentrations of polycationic compounds causing lysis of 50% of human red blood cells were conducted.
10 IU of anti-thrombin was dissolved in 10 ml of buffer, resulting in a 1 IU/ml stock solution (250×) of the anti-thrombin. The 1 IU/ml (250×) stock solution of anti-thrombin and a 336 mM stock solution of NaCl were diluted into a total volume of 50 μl buffer so that the final anti-thrombin concentration was 0.004 IU/sample well and the NaCl was 150 mM/sample well. 1 μl of the compound to be tested, final concentration 10 μg/ml (corresponding to 0.5 logarithmic antagonist dilution) is added to the sample well. The samples are mixed and allowed to incubate at room temperature for 20 minutes. 50 μl of factor Xa dissolved in buffer is added to the sample well to a final concentration of 0.14 knat/well (2 μl of the 7.1 kna/1 ml stock solution to a final sample well buffer volume of 100 μl). The samples were mixed and further incubated at room temperature for 10 minutes. 10 μl of a 4 mM stock solution of the substrate S-2765 was added to each sample well for a final concentration of 0.4 mM in each sample well. The samples were mixed and hydrolyses of the chromogenic substrate Z-D-Arg-Gly-Arg-pNA (S-2765), thus liberating the chromophoric group pNA (p-nitroaniline), was monitored at 405 nm. The samples were mixed every 30 seconds to maintain a uniform mixture. ThermoLabsystems Multiskan Spectrum spectrophotometer was used to measure the absorbance spectrums. The increase in absorbance was proportional to the enzyme (factor Xa) activity. The % inhibition of factor Xa was determined using a standard curve.

| Molecule | % FactorXa Inhibition |
| --- | --- |
| CC(C)(C)c1cc(N)c(SCCN)c(NC(=O)c2cccc(C(=O)Nc3cc(C(C)(C)C)cc(N)c3SCCN)c2)c1 [Compound 3] | 2.855% |
| CC(C)(C)c1cc(NC(=O)c2cccc(C(=O)Nc3cc(C(C)(C)C)cc(NC(=O)[C@H](N)CCCCN)c3SCCN)c2)c(SCCN)c(NC(=O)[C@H](N)CCCCN)c1 [Compound 4] | 0.9517% |
| CC(C)(C)c1cc(NC(=O)c2cc(OCCN)cc(C(=O)Nc3cc(C(C)(C)C)cc(NC(=O)[C@H](N)Cc4ccccc4)c3SCCN)c2)c(SCCN)c(NC(=O)[C@H](N)Cc2ccccc2)c1 [Compound 5] | 39.77% |
| CC(C)(C)c1cc(NC(=O)CCCN)c(SCCN)c(NC(=O)c2cccc(C(=O)Nc3cc(C(C)(C)C)cc(NC(=O)CCCN)c3SCCN)c2)c1 [Compound 6] | 2.583% |
| CC(C)(C)c1cc(NC(=O)c2cccc(C(=O)Nc3cc(C(C)(C)C)cc(NC(=O)[C@H](N)Cc4ccccc4)c3SCCN)c2)c(SCCN)c(NC(=O)[C@H](N)Cc2ccccc2)c1 [Compound 8] | 7.41% |
| CC(C)(C)c1cc(N)c(SCCNC(=N)N)c(NC(=O)c2cccc(C(=O)Nc3cc(C(C)(C)C)cc(N)c3SCCNC(=N)N)c2)c1 [Compound 9] | 10.88% and 16.25% |
| CC(C)(C)c1cc(NC(=O)CCCCNC(=N)N)c(SCCNC(=N)N)c(NC(=O)c2cccc(C(=O)Nc3cc(C(C)(C)C)cc(NC(=O)CCCCNC(=N)N)c3SCCNC(=N)N)c2)c1 [Compound 10] | 20.8% |
| CC(C)(C)c1cc(NC(=O)CCCCN)c(SCCN)c(NC(=O)c2cccc(C(=O)Nc3cc(C(C)(C)C)cc(NC(=O)CCCCN)c3SCCN)c2)c1 [Compound 11] | 1.903% |
| CC(C)(C)c1cc(NC(=O)CCCCNC(=N)N)c(SCCN)c(NC(=O)c2cccc(C(=O)Nc3cc(C(C)(C)C)cc(NC(=O)CCCCNC(=N)N)c3SCCN)c2)c1 [Compound 12] | 9.381% |
| CC(C)(C)c1cc(NC(=O)c2cccc(C(=O)Nc3cc(C(C)(C)C)cc(NC(=O)c4cc(N)ccc4OCCCCCN)c3SCCN)c2)c(SCCN)c(NC(=O)c2cc(N)ccc2OCCCCCN)c1 [Compound 13] | 36.84% |
| CC(C)(C)c1cc(N)c(SCCNC(=N)N)c(NC(=O)c2cc(OCCNC(=N)N)cc(C(=O)Nc3cc(C(C)(C)C)cc(N)c3SCCNC(=N)N)c2)c1 [Compound 14] | 40.99% |
| CC(C)(C)c1cc(N)c(SCCN)c(NC(=O)c2cc(C(=O)Nc3cc(C(C)(C)C)cc(N)c3SCCN)c(OCCN)cc2OCCN)c1 [Compound 15] | 5.71% |
| CC(C)(C)c1cc(N)c(SCCNC(=N)N)c(NC(=O)c2cc(C(=O)Nc3cc(C(C)(C)C)cc(N)c3SCCNC(=N)N)c(OCCNC(=N)N)cc2OCCNC(=N)N)c1 [Compound 16] | 30.39% |
| CC(C)(C)c1cc(N)c(SCCNC(=N)N)c(NC(=O)c2cc(C(=O)Nc3cc(C(C)(C)C)cc(N)c3SCCNC(=N)N)c(OCCN)cc2OCCN)c1 [Compound 17] | 15.02% |
| CC(C)(C)c1cc(NC(=N)N)c(SCCN)c(NC(=O)c2cc(C(=O)Nc3cc(C(C)(C)C)cc(NC(=N)N)c3SCCN)c(OCCN)cc2OCCN)c1 [Compound 18] | 13.26% |
| CC(C)OC(=O)c1cc(NC(=O)c2cc(OCCN)cc(C(=O)Nc3cc(C(=O)OC(C)C)cc(NC(=O)[C@H](N)CCCNC(=N)N)c3SCCN)c2)c(SCCN)c(NC(=O)[C@H](N)CCCNC(=N)N)c1 [Compound 19] | 59.82% |
| CC(=O)Nc1cc(C(C)(C)C)cc(NC(=O)c2cccc(C(=O)Nc3cc(C(C)(C)C)cc(NC(C)=O)c3SCCNC(=N)N)c2)c1SCCNC(=N)N [Compound 20] | 7.852% |
| CC(C)(C)c1cc(N)c(SCCNC2=NCCN2)c(NC(=O)c2cccc(C(=O)Nc3cc(C(C)(C)C)cc(N)c3SCCNC3=NCCN3)c2)c1 [Compound 21] | 1.496% |
